Measurements taken from article PMC3050878, “Correlation of Membrane Binding and Hydrophobicity to the Chaperone-Like Activity of PDC-109, the Major Protein of Bovine Seminal Plasma” (PLoS ONE, 2011).

Experiments:
[1] = biological target: T1, PDC-109 (Bos taurus, UniProt P02784); assay: fluorescence titration, Scatchard analysis; type: binding; conditions: read-out: K a (converted)
T1 construct: native, purified from bovine seminal plasma (Sephadex G-50 gel filtration, DEAE Sephadex A-25); mature 109 residues, two FnII domains, O-glycosylated; polydisperse oligomers
T1 sequence (P02784 26-134): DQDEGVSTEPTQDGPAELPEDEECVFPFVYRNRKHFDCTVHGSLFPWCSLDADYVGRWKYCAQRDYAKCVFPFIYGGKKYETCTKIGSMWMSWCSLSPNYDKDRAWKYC

[2] = biological target: T1, PDC-109; assay: near-UV CD; type: binding; conditions: sonicated unilamellar vesicles, 0.1 mM lipid, pH 7.4, room temperature
[3] = biological target: T1, PDC-109; assay: ANS fluorescence in presence of PrC; conditions: 10 mM PrC, 50 µM ANS, 0.05 mg/mL protein; lowers ANS binding
[4] = biological target: T1, PDC-109; assay: isothermal titration calorimetry, sequential binding model; conditions: read-out: Ka × 10^3 (M^-1) (converted)
Source text: isothermal titration calorimetry, sequential binding model on PDC-109

O=S(=O)(O)c1cccc2cccc(Nc3ccccc3)c12 [ANS, 8-anilinonaphthalene sulphonic acid]
Kd [1]: 32.4 µM

CCCCCCCCCCCCCC(=O)OC[C@H](COP(=O)([O-])OCC[N+](C)(C)C)OC(=O)CCCCCCCCCCCCC [DMPC]
near-UV CD [2]: the protein tertiary structure is altered upon phospholipid binding

CCCCCCCCCCCCCC(=O)OC[C@H](COP(=O)(O)OCC(O)CO)OC(=O)CCCCCCCCCCCCC (some centres unmarked) [DMPG]
near-UV CD [2]: the protein tertiary structure is altered upon phospholipid binding

C[N+](C)(C)CCOP(=O)([O-])O [PrC]
ANS fluorescence in presence of PrC [3]: PrC binding leads to a significant decrease in the surface hydrophobicity of the protein

O=S(=O)(O)c1cccc2c(-c3ccc(Nc4ccccc4)c4c(S(=O)(=O)O)cccc34)ccc(Nc3ccccc3)c12 [bisANS, 4,4′-Dianilino-1,1′-binaphthyl-5,5′-disulphonic acid]
Kd [4]: 389 µM
